Square brackets hold non-standard residues; d marks the D form. Ends that are not written are not given here. pS = N[C@@H](COP(=O)(O)O)C(=O)O

A short description of test [1]: HA binding assay (pulldown of fluorescein-labeled peptides, Langmuir isotherm fit). As to conditions: for Nmax (maximum monolayer surface concentration) / KA (binding affinity for HA): fit of Langmuir equation; for KA (binding affinity for HA): fluorescein-labeled peptide 0-100 μM, 0.3 mg HA nanocrystals. The method, then: Fluorescein-labeled DSS-containing peptides of various lengths were subjected to pulldown assays as follows: Samples containing varying concentrations of fluorescein-labeled peptide (0-100 μM) and a fixed amount (0.3 mg) of HA nanocrystals with a specific surface area of 100 m^2/g (Berkeley Advanced Biomaterials, Berkeley, Calif.) were prepared. Measurements were taken of the absorbance of the labeled peptide at 488 nm (the peak absorbance of the fluorescein label) before and after exposure to the HA. The amount of peptide bound was calculated by comparing the ratio of the final (Af) and initial (Ai) absorbances to the initial concentration (C0) [Cbound=(Af/Ai)C0]. Plots were generated of the amount of peptide bound per meter squared of HA surface area vs. concentration of unbound peptide at equilibrium. The resulting isotherms were fit to the Langmuir isotherm, x/m=(KANmaxCeq)/(1+KACeq), where x/m represents the molar amount of peptide bound per unit of HA surface area, KA is the affinity constant of the peptide for the HA surface (L/Mol), Nmax is the maximum surface concentration (mol/m^2), and Ceq is the molar concentration of unbound peptide at equilibrium (Calis et al. (1995) Pharm Res., 12: 1072-1076).
In order to quantitatively assess the strength of the DSS-HA interaction as well as to determine the roles of peptide length and sequence on binding, fluorescein-labeled, DSS-containing peptides of various lengths were subjected to pulldown assays as described in “Materials and Methods.”
The experimental data were fit to the Langmuir isotherm, which describes the binding of molecules to surfaces with the conditions that (1) all binding sites have the same affinity for the peptide and (2) the peptide will form a monolayer on the surface but cannot accumulate to higher levels (Atkins (1994) Physical chemistry. Freeman, New York). The excellent fit of the Langmuir isotherm to the experimental data validates these conditions, and the constants obtained from this analysis were used for comparisons between peptides. As shown in FIG. 7A and summarized in Table 6, both the binding affinity (KA) and the monolayer concentration (NMax) of the various peptides increased with the number of DSS repeats per peptide. Additionally, several variant peptides were tested (FIGS. 7B, 7C, Table 6): a peptide containing a longer side chain at the first position (4ESS (SEQ ID NO:34)), peptides containing a more sterically hindered hydroxyl group at the second and third positions (4DTT (SEQ ID NO:36), 4NTT (SEQ ID NO:38), 4ETT (SEQ ID NO:37)), peptides lacking a charged group at the first position (4NSS (SEQ ID NO:35), 8ASS (SEQ ID NO:26)), and peptides lacking hydroxyl groups at the second and third positions (DAA-8 (SEQ ID NO:40), 8NAA (SEQ ID NO:41)).

Test [2] is described as follows: Binding of labeled peptides to carious lesions in teeth (CLSM). As to conditions: labeled peptide, settings optimized per sample. On the set-up: species or system human. An excerpt:
Sections of human teeth containing obvious carious lesions, which consist of demineralized enamel, were polished and exposed to 5(6)-carboxyfluorescein-labeled DSS peptides and variants. The sections were washed extensively and imaged by CLSM using blue laser illumination (A=488 nm) and a FITC emission filter, with microscope and camera settings adjusted for each sample to optimize the signal detected from each peptide. The images were examined to identify the relative levels of peptide binding in healthy versus carious tissue. […] Given their ability to remineralize at sites of enamel degradation, they can also be used to initiate remineralization at sites of enamel degradation such as caries or injury sites without causing inappropriate nucleation on healthy tissue surfaces.

Test [3] in a line: Tissue specific binding of labeled peptides to sections of human teeth (CLSM). The settings on record: 5(6)-carboxyfluorescein-labeled peptide, ten minutes; for level of binding (staining) to tooth surfaces: identical settings. An excerpt: In order to investigate the tissue specificity of DSS peptide binding to tooth tissue, sections of human teeth were exposed to DSS peptides and variants, then imaged by CLSM. The peptides utilized for these experiments were 8DSS (SEQ ID NO:33), 8ASS (SEQ ID NO:26), 8DAA (SEQ ID NO:40), 8NAA (SEQ ID NO:41), 4DSS (SEQ ID NO:31), 4ESS (SEQ ID NO:34), 4NSS (SEQ ID NO:35), 4DTT (SEQ ID NO:36), 4ETT (SEQ ID NO:37), 4NTT (SEQ ID NO:38), and 6DSS (SEQ ID NO:32). Sagittal sections of human teeth extracted during normal clinical practice were polished and then incubated for ten minutes in a solution of the appropriate 5(6) carboxyfluorescein-labeled peptide (12.5pM) containing 10 mM NaCl and 50 mM HEPES, pH 7.0. Control samples were prepared without peptide. Samples were washed extensively after treatment and imaged by CLSM using blue laser illumination (A=488 nm) and a FITC emission filter, with identical camera and microscope settings for each sample. For each section, multiple scans were collected and assembled in an automated mode to generate panels of images representing an area of 13×13 mm, sufficient in most cases to encompass the whole section. […] Significant binding was also seen to the edges of the pulp cavity.

“4DS(P)S: phosphorylated DSS repeat peptide of the same size as 4DSS, SEQ ID NO:4 (D[pS]SD[pS]SD[pS]SD[pS]S)”: in test [1], the “Nmax (maximum monolayer surface concentration)” value (“Nmax” for short) is reported as 1.2 × 10^−7 ± 5 × 10^−9 mol/m^2 and the “KA (binding affinity for HA)” value was 83,000 ± 9,000 M^−1. In addition, in test [1] (in words), the “effect of sequence variation on binding affinity (KA) relative to DSS peptide of same size” value is “did not lead to a significant change in binding affinity” and the “surface binding density relative to unphosphorylated peptide” value is listed as “large increase in the surface binding density”.
Turning to “4NAA: printed once with SEQ ID NO:44; not among the synthesized peptides, probably a misprint (NAANAANAANAA; synthetic calcium-binding peptide 4NAA)”, the “strength of staining of carious lesions” value in test [2] is recorded as “exceptionally strong staining of carious lesions”.
“5DSS: peptide of five Asp-Ser-Ser repeats, SEQ ID NO:22 (DSSDSSDSSDSSDSS; synthetic calcium-binding peptide 5DSS, (DSS)-5)”: in test [1], the “Nmax” value is 9.2 × 10^−8 ± 2 × 10^−9 mol/m^2 and the “KA (binding affinity for HA)” value is on record as 148,000 ± 14,000 M^−1.
Turning to “ASS ASS ASS ASS ASS ASS ASS ASS (ASSASSASSASSASSASSASSASS; synthetic calcium-binding peptide 8ASS)”, in test [1] (in words), the “effect of sequence variation on binding affinity (KA) relative to DSS peptide of same size” value is “significant loss of binding affinity”. The “level of binding (staining) to tooth surfaces” value (“level of binding (staining)” below) in test [3] is given as “lower levels of binding”. Further, in test [2], the “specificity of binding to carious lesions versus healthy enamel” value was “highly specific binding to carious lesions” and the “strength of staining of carious lesions” value is “exceptionally strong staining of carious lesions”.
As to “DAA DAA DAA DAA DAA DAA DAA DAA (DAADAADAADAADAADAADAADAA; synthetic calcium-binding peptide 8DAA)”, in test [1], the “Nmax” value is 6.0 × 10^−8 ± 6 × 10^−9 mol/m^2 and the “KA (binding affinity for HA)” value was 310,000 ± 74,000 M^−1. Also, the “effect of sequence variation on binding affinity (KA) relative to DSS peptide of same size” value in test [1] (in words, listed as DAA8) is recorded as “little observable effect”. In test [1] (in words, listed as DAA-8), the “effect of sequence variation on binding affinity (KA) relative to DSS peptide of same size” value was “within experimental error of the KA for 8DSS”. Further, in test [3], the “tissue pattern of binding in the tooth section” value (shortened to “tissue pattern of binding”) was “primary binding to the root tip dentin and cortical enamel”. In test [2], the “specificity of binding to carious lesions versus healthy enamel” value is recorded as “highly specific binding to carious lesions” and the “strength of staining of carious lesions” value is given as “exceptionally strong staining of carious lesions”.
Take “DSS DSS (DSSDSS; synthetic calcium-binding peptide 2DSS)”: in test [1], the “Nmax” value is 2 × 10^−8 ± 5 × 10^−9 mol/m^2 and the “KA (binding affinity for HA)” value is listed as 57,000 ± 24,000 M^−1.
“DTT DTT DTT DTT (DTTDTTDTTDTT; synthetic calcium-binding peptide 4DTT)”: in test [1], the “Nmax” value was 1.3 × 10^−8 ± 1 × 10^−9 mol/m^2 and the “KA (binding affinity for HA)” value is reported as 161,000 ± 79,000 M^−1. The “effect of sequence variation on binding affinity (KA) relative to DSS peptide of same size” value in test [1] (in words) is reported as “little observable effect”. Also, in test [3], the “tissue pattern of binding” value is on record as “binding patterns similar to those of 4DSS” and the “level of binding (staining)” value is reported as “sharply reduced levels”.
As to “NTT NTT NTT NTT (NTTNTTNTTNTT; synthetic calcium-binding peptide 4NTT)”, in test [1], the “Nmax” value is listed as 5.8 × 10^−8 ± 2 × 10^−8 mol/m^2 and the “KA (binding affinity for HA)” value is on record as 17,000 ± 7,000 M^−1. Besides, in test [1] (in words), the HA binding activity entry was “near-total loss of binding activity” and the “effect of sequence variation on binding affinity (KA) relative to DSS peptide of same size” value is on record as “significant loss of binding affinity”. Besides, in test [3], the “tissue pattern of binding” value is listed as “strong binding to a fragment of periodontal bone” and the “level of binding (staining)” value is “very low levels of binding to the healthy tooth tissue”.

These data come from patent US8889156B2, “Calcium-binding agents induce hair growth and/or nail growth” (priority 2009, dated 2014).
